{"source": "patent US20080181848A1", "about": "(priority 2004, published 2008)", "key": {"D2 receptors in striatum": {"molecular_target": "T1, D2 receptors in striatum (Rattus norvegicus, UniProt P61169)", "T1 construct": "from tissue; host or cells: striatum of Sprague-Dawley rats (in vivo labelling)", "T1 sequence (P61169 whole entry)": "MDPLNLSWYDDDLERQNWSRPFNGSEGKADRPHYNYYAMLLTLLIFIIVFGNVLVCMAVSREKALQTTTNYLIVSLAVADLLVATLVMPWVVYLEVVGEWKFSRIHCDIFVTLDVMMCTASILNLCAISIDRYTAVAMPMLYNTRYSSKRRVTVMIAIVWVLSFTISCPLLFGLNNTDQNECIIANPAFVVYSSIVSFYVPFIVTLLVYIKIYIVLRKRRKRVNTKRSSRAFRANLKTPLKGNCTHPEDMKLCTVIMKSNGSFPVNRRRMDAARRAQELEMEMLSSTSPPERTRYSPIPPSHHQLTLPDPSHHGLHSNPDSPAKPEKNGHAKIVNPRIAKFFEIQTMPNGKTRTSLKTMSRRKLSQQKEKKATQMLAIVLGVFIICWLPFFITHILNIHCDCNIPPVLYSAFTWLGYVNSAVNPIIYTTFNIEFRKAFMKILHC", "assay": "Binding of intravenously injected radioligand in rat striatum, alone and co-injected with NPA (Examples 2 and 3)", "format": "in vivo, Sprague-Dawley rats", "source_text": "In describing and validating the method of the present invention using rats instead of humans, there are certain considerations that should be noted. For example, each rat is not imaged, but is guillotined, and the striatum removed in order to measure the radioactivity in DPM/mg tissue, where DPM represents disintegrations per minute.\nSprague-Dawley rats (275-300 g) were restrained in transparent polystyrene cages. The tail vein was warmed in warm water."}, "D1 receptor": {"molecular_target": "D1 receptor (Homo sapiens, UniProt P21728)", "sequence (P21728 whole entry)": "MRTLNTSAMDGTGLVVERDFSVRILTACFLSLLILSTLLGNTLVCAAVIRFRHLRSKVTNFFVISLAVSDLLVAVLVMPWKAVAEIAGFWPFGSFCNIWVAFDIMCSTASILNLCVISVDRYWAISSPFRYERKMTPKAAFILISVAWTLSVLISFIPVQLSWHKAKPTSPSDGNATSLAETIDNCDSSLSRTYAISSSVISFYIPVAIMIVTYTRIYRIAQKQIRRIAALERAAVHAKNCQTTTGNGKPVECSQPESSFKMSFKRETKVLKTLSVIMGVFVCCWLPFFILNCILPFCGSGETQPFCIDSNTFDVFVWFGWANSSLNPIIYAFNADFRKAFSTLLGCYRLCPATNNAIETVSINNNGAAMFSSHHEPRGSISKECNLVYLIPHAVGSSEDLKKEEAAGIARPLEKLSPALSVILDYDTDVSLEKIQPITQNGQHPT", "conditions": "D1^High state; read-out: dissociation constant for the high-affinity state of the D1 receptor; cited from earlier work"}, "[1]": {"conditions": "rat striatum, radioligand co-injected i.v. with NPA 25 μg/kg"}, "[2]": {"conditions": "25 μg/Kg NPA co-injected i.v., rats, n=6"}}, "note": "Counter-ions that a name gives are not always drawn.", "data": [{"smiles": "CCN1CCC[C@H]1CNC(=O)c1c(O)c(Cl)cc(Cl)c1OC", "note": "(racemic) [[^3H]Raclopride]", "values": [{"measurement": "Control", "setting": "D2 receptors in striatum; rat striatum, 30 min after i.v. 0.1 nmol radioligand, no NPA", "result": 2.8, "unit": "pmol/g"}, {"measurement": "Control DPM/mg (total binding in striatum)", "setting": "D2 receptors in striatum; rat striatum, 30 min after i.v. 0.1 nmol radioligand, no NPA, n=6", "result": 37.9, "unit": "DPM/mg"}, {"measurement": "pmol/g Displaced by NPA", "setting": "D2 receptors in striatum; rat striatum, NPA 25 μg/kg co-injected", "result": 1.09, "unit": "pmol/g"}, {"measurement": "With NPA", "setting": "D2 receptors in striatum; [1]", "result": 1.71, "unit": "pmol/g"}, {"measurement": "With NPA DPM/mg", "setting": "D2 receptors in striatum; [1]", "result": 23.13, "unit": "DPM/mg"}]}, {"smiles": "CCCN1CCOC2c3cc(O)ccc3CCC21", "note": "(single isomer, unassigned; (+)) [(+)PHNO, (+)-4-propyl-9-hydroxy-2,3,4a,5,6,10b-hexahydro-4H-naphth[1,2b][1,4]oxazine HCl]", "values": [{"measurement": "Kd", "setting": "D1 receptor", "result": 80, "unit": "nM"}]}, {"smiles": "CCCN1CCc2cccc3c2[C@H]1Cc1ccc(O)c(O)c1-3", "note": "[NPA, N-propyl-norapomorphine]", "values": [{"measurement": "binding of radioactive raclopride, level of the control value", "setting": "D2 receptors in striatum; 25 μg/Kg NPA co-injected i.v., rats, mean ±s.e., n=6, P=0.0004 vs (+)PHNO", "result": "61%±2.9 % of the control value"}, {"measurement": "binding of radioactive (+)PHNO, level of the control value", "setting": "D2 receptors in striatum; [2]", "result": "46 % of the control value"}, {"measurement": "inhibition of the binding of radioactive raclopride", "setting": "D2 receptors in striatum; [2]", "result": 39, "unit": "%"}, {"measurement": "inhibition of the binding of radioactive (+)PHNO", "setting": "D2 receptors in striatum; 25 μg/Kg NPA co-injected i.v., rats, n=6, representative experiment", "result": 54, "unit": "%"}, {"measurement": "inhibition of the D2^High receptors", "setting": "D2 receptors in striatum; normal rats, NPA 25 μg/kg i.v. co-injected with radioactive (+)PHNO", "result": 53, "unit": "%"}]}]}
